Laboratory results published in US8796289B2 (AbbVie Inc., priority 2011, dated 2014).

Molecular target: GST-tagged-Wee1 kinase (Homo sapiens, UniProt P30291)
Assay: Wee1 time-resolved fluorescence equilibrium binding assay (displacement of Oregon Green-labeled ATP-competitive kinase probe)
Description: Wee1 kinase was assayed using a time-resolved fluorescence equilibrium binding assay monitoring displacement of a rapidly reversible Oregon Green-labeled ATP-competitive kinase probe (N-(2-(2-(2-(4-(4-(5-chloro-4-(2-(1-hydroxycyclobutyl)thiazol-5-yl)-1H-pyrrolo[2,3-b]pyridin-2-yl)phenyl)piperazin-1-yl)ethoxy)ethoxy)ethyl)-2′,7′-difluoro-3′,6′-dihydroxy-3-oxo-3H-spiro[isobenzofuran-1,9′-xanthene]-5-carboxamide) by competitive Wee1 inhibitors.

GST-tagged-Wee1 kinase, sequence (P30291 whole entry): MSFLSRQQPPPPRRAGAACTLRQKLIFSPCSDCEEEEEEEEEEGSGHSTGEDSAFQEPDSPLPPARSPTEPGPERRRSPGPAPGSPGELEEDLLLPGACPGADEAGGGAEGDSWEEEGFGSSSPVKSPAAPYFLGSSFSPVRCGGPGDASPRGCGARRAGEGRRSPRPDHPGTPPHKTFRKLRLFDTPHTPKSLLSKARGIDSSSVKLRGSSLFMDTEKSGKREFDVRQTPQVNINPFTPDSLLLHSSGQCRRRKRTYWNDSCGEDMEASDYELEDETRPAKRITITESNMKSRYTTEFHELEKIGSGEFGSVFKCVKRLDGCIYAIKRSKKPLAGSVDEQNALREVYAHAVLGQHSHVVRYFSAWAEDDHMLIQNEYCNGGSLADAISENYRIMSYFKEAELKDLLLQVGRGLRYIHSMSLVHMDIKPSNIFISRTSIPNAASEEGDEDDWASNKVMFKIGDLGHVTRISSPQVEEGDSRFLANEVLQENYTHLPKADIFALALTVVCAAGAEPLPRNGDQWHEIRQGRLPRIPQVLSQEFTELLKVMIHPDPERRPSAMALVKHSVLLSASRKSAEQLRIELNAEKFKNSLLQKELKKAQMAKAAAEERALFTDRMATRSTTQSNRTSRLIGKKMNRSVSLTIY

Ki [nM] | SMILES
1 | COC(=O)c1cccc(-c2nn(-c3c(Cl)cccc3Cl)c(=O)c3cnc(Nc4ccc(N5CCN(C)CC5)cc4)nc23)c1 [Example 188, methyl 3-[6-(2,6-dichlorophenyl)-2-{[4-(4-methylpiperazin-1-yl)phenyl]amino}-5-oxo-5,6-dihydropyrimido[4,5-d]pyridazin-8-yl]benzoate]
0.02 | CN1CCN(c2ccc(Nc3ncc4c(=O)n(-c5c(Cl)cccc5Cl)nc(-c5cccc(C(=O)N(C)C)c5)c4n3)cc2)CC1 [Example 189, 3-[6-(2,6-dichlorophenyl)-2-{[4-(4-methylpiperazin-1-yl)phenyl]amino}-5-oxo-5,6-dihydropyrimido[4,5-d]pyridazin-8-yl]-N,N-dimethylbenzamide]
0.01 | CN1CCN(c2ccc(Nc3ncc4c(=O)n(-c5c(Cl)cccc5Cl)nc(-c5cccc(C(=O)O)c5)c4n3)cc2)CC1 [Example 190, 3-[6-(2,6-dichlorophenyl)-2-{[4-(4-methylpiperazin-1-yl)phenyl]amino}-5-oxo-5,6-dihydropyrimido[4,5-d]pyridazin-8-yl]benzoic acid]
0.03 | CNC(=O)c1cccc(-c2nn(-c3c(Cl)cccc3Cl)c(=O)c3cnc(Nc4ccc(N5CCN(C)CC5)cc4)nc23)c1 [Example 191, 3-[6-(2,6-dichlorophenyl)-2-{[4-(4-methylpiperazin-1-yl)phenyl]amino}-5-oxo-5,6-dihydropyrimido[4,5-d]pyridazin-8-yl]-N-methylbenzamide]
0.02 | CN1CCN(C(=O)c2cccc(-c3nn(-c4c(Cl)cccc4Cl)c(=O)c4cnc(Nc5ccc(N6CCN(C)CC6)cc5)nc34)c2)CC1 [Example 192, 6-(2,6-dichlorophenyl)-8-{3-[(4-methylpiperazin-1-yl)carbonyl]phenyl}-2-{[4-(4-methylpiperazin-1-yl)phenyl]amino}pyrimido[4,5-d]pyridazin-5(6H)-one]
< 1 | CN1CCN(c2ccc(Nc3ncc4c(=O)n(-c5c(Cl)cccc5Cl)nc(-c5cccc(C(=O)N6CCCCC6)c5)c4n3)cc2)CC1 [Example 194, 6-(2,6-dichlorophenyl)-2-{[4-(4-methylpiperazin-1-yl)phenyl]amino}-8-[3-(piperidin-1-ylcarbonyl)phenyl]pyrimido[4,5-d]pyridazin-5(6H)-one]
230 | C=CCn1nc(C2CC(F)(F)C2)c2nc(Nc3ccc(N4CCN(C)CC4)cc3)ncc2c1=O [Example 196, 8-(3,3-difluorocyclobutyl)-2-{[4-(4-methylpiperazin-1-yl)phenyl]amino}-6-(prop-2-en-1-yl)pyrimido[4,5-d]pyridazin-5(6H)-one]
100 | CN1CCN(c2ccc(Nc3ncc4c(=O)n(-c5ccccn5)nc(C5CC(F)(F)C5)c4n3)cc2)CC1 [Example 197, 8-(3,3-difluorocyclobutyl)-2-{[4-(4-methylpiperazin-1-yl)phenyl]amino}-6-(pyridin-2-yl)pyrimido[4,5-d]pyridazin-5(6H)-one]
25 | CN1CCN(c2ccc(Nc3ncc4c(=O)n(-c5ccccc5F)nc(C5CC(F)(F)C5)c4n3)cc2)CC1 [Example 198, 8-(3,3-difluorocyclobutyl)-6-(2-fluorophenyl)-2-{[4-(4-methylpiperazin-1-yl)phenyl]amino}pyrimido[4,5-d]pyridazin-5(6H)-one]
82 | CN1CCN(c2ccc(Nc3ncc4c(=O)n(-c5cccc(F)c5)nc(C5CC(F)(F)C5)c4n3)cc2)CC1 [Example 199, 8-(3,3-difluorocyclobutyl)-6-(3-fluorophenyl)-2-{[4-(4-methylpiperazin-1-yl)phenyl]amino}pyrimido[4,5-d]pyridazin-5(6H)-one]
0.3 | CN1CCN(c2ccc(Nc3ncc4c(=O)n(-c5c(Cl)cccc5Cl)nc(-c5cnn(CCCl)c5)c4n3)cc2)CC1 [Example 200, 8-[1-(2-chloroethyl)-1H-pyrazol-4-yl]-6-(2,6-dichlorophenyl)-2-{[4-(4-methylpiperazin-1-yl)phenyl]amino}pyrimido[4,5-d]pyridazin-5(6H)-one]
